Earlier results in patent US20240216394A1, “GOLEXANOLONE FOR USE IN THE TREATMENT OF FATIGUE OR COGNITIVE IMPAIRMENT IN LIVER DISEASE PATIENTS” (Umecrine Cognition AB, priority 2021, published 2024).

Columns and labels:
[1] = tested on: PBC-related fatigue; conditions: patients suffering from PBC-related fatigue
[2] = tested on: rats following bile duct ligation (BDL)

| Compound | Benefit in PBC-related fatigue [1] | Effect on whole body fatigue [2] |
| --- | --- | --- |
| CNCCC(Oc1ccc(C(F)(F)F)cc1)c1ccccc1 (stereo not shown) [Fluoxetine] | neither have proven beneficial | – |
| NC(=O)C[S+]([O-])C(c1ccccc1)c1ccccc1 (stereo not shown) [Modafinil] | neither have proven beneficial | – |
| Rituximab | neither have proven beneficial | – |
| dehydroepiandrosterone sulphate [DHEAS] | – | positive effect |
